Data set [1] can be described thus: Phase 1 study: plasma pharmacokinetics, Cycle 1 Day 15, after oral Compound A. Type of data set: in vivo, human. Particulars: patients, Cycle 1 Day 15 steady state; for Cmax: human, po, 150 mg, Compound A Cmax (mean). From the text: Phoenix WinNonlin version 6.3 was used to analyze plasma concentration versus time data for calculation of standard noncompartmental PK parameters. All PK calculations were completed using the nominal sample collection times.

The test system of data set [2] is circulating glioblastoma tumor cells (PDGFRα+/GFAP+). Nature of the data set: Phase 1 study: circulating glioblastoma tumor cells (PDGFRα+/GFAP+ CTC) in whole blood. Type of data set: in vivo, human. Particulars: GBM patient, 20 mg BID. The procedure:
(§1) Preliminary antitumor activity was measured by CT scans according to RANO (Revised Assessment in Neuro-Oncology) criteria every other cycle followed by after every cycle (every 56 or 84 days). Pharmacodynamic effects […] were measured as a reduction in circulating tumor cells (CTC). Whole blood was enriched for CTCs in an OncoQuick tube. The CTC layer was incubated with an adenovirus that replicates and expresses GFP in cells with high levels of telomerase (Oncolys BioPharma Inc.). Cells were then incubated with fluorescently-labeled antibodies, fixed, and stained with DAPI. Cells positive for DAPI, GFP, PDGFRα and GFAP fluorescence were counted as circulating glioblastoma tumor cells using a BioTek Cytation 5 imager. Glial fibrillary acidic protein (GFAP) is unambiguously attributed to glial cells.
The relevance of PDGFRα amplification has been assessed in pediatric and adult high-grade astrocytomas (HGA) including glioblastomas. […] Dunn et al., provide additional evidence that PDGFRα amplification is a driver genomic alteration for GBM (Dunn et al., Genes Dev. (2012) 26(8):756-84). […] The frequency dropped in cycles 13 (52 weeks) and 17 (68 weeks) to 1.11 and 0.58 CTCs/mL, respectively.

The subject of data set [3] is PDGFRα D842V mutation in plasma cell-free DNA. The experiment in a line: Phase 1 study: PDGFRα D842V mutation allele frequency in plasma cfDNA (Guardant 360). Type of data set: in vivo, human. Particulars: GIST patient at 100 mg BID. As to the method: (§2) Preliminary antitumor activity was measured by CT scans according to RECIST 1.1 every other cycle (every 56 days). Pharmacodynamics effects were measured as a reduction in mutation allele frequency (MAF) in plasma cell-free (cf) DNA and analyzed with Guardant 360 v2.9 or v2.10 (Guardant Health, Redwood City, Calif.), a. 73-gene next generation sequencing panel.
To date, cfDNA follow up data for PDGFRα D842V mutation allele frequency in plasma are available for the patient at 100 mg BID only. The PDGFRα D842V mutation was not detected by cfDNA at baseline, but at Cycle 3 Day 1 (8 weeks) post-treatment a frequency of 0.59% was detected.

Data set [4] concerns PDGFRα D842V mutated Gastrointestinal Stromal Tumors (GIST). The experiment in a line: Phase 1 study DCC-2618-01-001: antitumor activity (RECIST 1.1) in GIST patients with PDGFRα D842V mutation. Type of data set: in vivo, human. The settings on record: GIST patient. As to the method: as §2
All patients had to have progressive disease on standard of care treatment and would rapidly progress without treatment. Three patients with PDGFRα-mutated Gastrointestinal Stromal Tumors (GIST) were enrolled in the study. The PDGFRα D842V mutation was identified in each patient by tumor biopsy. Based on non-clinical data and the available pharmacokinetic data from study DCC-2618-01-001, dose levels of >50 mg BID (daily dose equivalent 100 mg) were sufficient to lead to tumor control i.e. growth arrest in these advanced sarcomas of PDGFRα D842V mutation-dependent tumors in patients suffering from GIST. Out of 3 evaluable patients, 2 were enrolled at or above target-effective dose levels (150 mg QD and 100 mg BID). […] The patient at 100 mg BID is now in Cycle 11 (>40 weeks) and continues to benefit from treatment. […] The 2 patients had 1 and 3 prior treatments with Tyrosine Kinase Inhibitors, respectively.

Data set [5] has as its system PDGFRα amplified glioblastoma. The experiment in a line: Phase 1 study: antitumor activity (RANO) in glioblastoma patient with PDGFRα amplification. Type of data set: in vivo, human. Particulars: GBM patient, 20 mg BID oral. As to the method: as §1
All patients had to have progressive disease on standard of care treatment and would rapidly progress without treatment. One patient with PDGFRα amplified glioblastoma (GBM; 6× amplified, 12 copies) was enrolled in the study at the 20 mg BID dose level. The patient had been treated initially with combined radio-chemotherapy followed by temozolomide alone and progressed after 3 months. The GBM patient is now in cycle 19 (>17 months on study) and continues to benefit from treatment. […] FIG. 1B provided an additional proof of the tumor reduction after cycle 9.

In data set [6] the target is T1, recombinant D842V mutant PDGFRα (Homo sapiens, UniProt P16234, D842V).
T1 construct: His (N); purchased Invitrogen, Carlsbad, Calif
The experiment in a line: Biochemical assay for PDGFRα D842V (coupled pyruvate kinase/lactate dehydrogenase). The settings on record: 0.5 mM ATP, 3 nM PDGFRA D842V; read-out: IC50, inhibition of recombinant D842V mutant PDGFRα enzyme activity. As to the method:
(§3) The reaction rate was calculated using the 2-3 h time frame.

For data set [7], the system named is FIP1L1-PDGFRα fusion in EOL-1 cells. The experiment in a line: EOL-1 Western blot, phospho-PDGFRα (Tyr754). The settings on record: Homo sapiens, EOL1, 4 hours, read-out: IC50, inhibition of phosphorylation of FIP1L1-PDGFRα fusion in EOL-1 cells. Type of data set: cell-based. The procedure: (§4) Cells were washed with PBS, then lysed. Cell lysates were separated by SDS-PAGE and transferred to PVDF. Phospho-PDGFRα (Tyr754) was detected using an antibody from Cell Signaling Technology (Beverly, Mass.), ECL Plus detection reagent (GE Healthcare, Piscataway, N.J.) and a Molecular Devices Storm 840 phosphorimager in fluorescence mode. Blots were stripped and probed for total PDGFRα using an antibody from Cell Signaling Technology (Beverly, Mass.). IC50 values were calculated using Prism software (GraphPad, San Diego, Calif.).

For data set [8], the target named is T2, D842V mutant PDGFRα expressed in BaF3 cells (Homo sapiens, UniProt P16234, D842V).
T2 construct: expressed in transfected cells; host or cells: BaF3 cells (IL-3 independent selection)
Nature of the data set: BaF3 PDGFRα D842V Western blot, phospho-PDGFRα (Tyr754). Type of data set: cell-based. The settings on record: 4 hours, read-out: IC50, inhibition of phosphorylation of D842V mutant PDGFRα expressed in BaF3 cells.
Text: (§5) BaF3 cells were transfected with a construct encoding D842V PDGFRα and selected for IL-3 independence.
as §4

In data set [9] the target is T3, recombinant wild type PDGFRα (Homo sapiens, UniProt P16234).
T3 construct: purchased DeCode Biostructures, Bainbridge Island, Wash
Nature of the data set: Biochemical assay for PDGFRα (coupled pyruvate kinase/lactate dehydrogenase). Particulars: 0.5 mM ATP, 4.8 nM PDGFRA; read-out: IC50, inhibition of recombinant wild type PDGFRα enzyme activity.
Procedure: Inhibition of PDGFRA was measured after adding serial diluted test compound (final assay concentration of 1% DMSO). A decrease in absorption at 340 nm was monitored continuously for 6 hours at 30° C. on a multi-mode microplate reader (BioTek, Winooski, Vt.). The reaction rate was calculated using the 1-2 h time frame. The reaction rate at each concentration of compound was converted to percent inhibition using controls (i.e. reaction with no test compound and reaction with a known inhibitor) and IC50 values were calculated by fitting a four-parameter sigmoidal curve to the data using Prism (GraphPad, San Diego, Calif.).

Data set [10] deals with FIP1L1-PDGFRα fusion in EOL-1 cells. The experiment in a line: EOL-1 cell proliferation assay (resazurin). The settings on record: Homo sapiens, EOL1; 67 h + 5 h resazurin; read-out: IC50, inhibition of proliferation of FIP1L1-PDGFRα fusion in EOL-1 cells. Type of data set: cell-based. As to the method: (§6) A serial dilution of test compound was dispensed into a 96-well black clear bottom plate (Corning, Corning, N.Y.). Ten thousand cells were added per well in 200 μL complete growth medium. […] Plates were read on a Synergy2 reader (Biotek, Winooski, Vt.) using an excitation of 540 nm and an emission of 600 nm. Data was analyzed using Prism software (GraphPad, San Diego, Calif.) to calculate IC50 values.

The target of data set [11] is T4, recombinant wild type PDGFRβ (Homo sapiens, UniProt P09619).
T4 construct: purchased DeCode Biostructures, Bainbridge Island, Wash
Nature of the data set: Biochemical assay for PDGFRB (coupled pyruvate kinase/lactate dehydrogenase). The settings on record: 0.5 mM ATP, 9 nM PDGFRB; read-out: IC50, inhibition of recombinant wild type PDGFRβ enzyme activity. The procedure:
as §3

Data set [12] concerns D842V mutant PDGFRα BaF3 cells. The experiment in a line: BaF3 PDGFRα D842V cell proliferation assay (resazurin). Type of data set: cell-based. Particulars: Mus musculus, 67 h + 5 h resazurin, read-out: IC50, inhibition of proliferation of D842V mutant PDGFRα BaF3 cells. The procedure:
as §5, §6

T2 sequence (P16234 24-1089 D842V): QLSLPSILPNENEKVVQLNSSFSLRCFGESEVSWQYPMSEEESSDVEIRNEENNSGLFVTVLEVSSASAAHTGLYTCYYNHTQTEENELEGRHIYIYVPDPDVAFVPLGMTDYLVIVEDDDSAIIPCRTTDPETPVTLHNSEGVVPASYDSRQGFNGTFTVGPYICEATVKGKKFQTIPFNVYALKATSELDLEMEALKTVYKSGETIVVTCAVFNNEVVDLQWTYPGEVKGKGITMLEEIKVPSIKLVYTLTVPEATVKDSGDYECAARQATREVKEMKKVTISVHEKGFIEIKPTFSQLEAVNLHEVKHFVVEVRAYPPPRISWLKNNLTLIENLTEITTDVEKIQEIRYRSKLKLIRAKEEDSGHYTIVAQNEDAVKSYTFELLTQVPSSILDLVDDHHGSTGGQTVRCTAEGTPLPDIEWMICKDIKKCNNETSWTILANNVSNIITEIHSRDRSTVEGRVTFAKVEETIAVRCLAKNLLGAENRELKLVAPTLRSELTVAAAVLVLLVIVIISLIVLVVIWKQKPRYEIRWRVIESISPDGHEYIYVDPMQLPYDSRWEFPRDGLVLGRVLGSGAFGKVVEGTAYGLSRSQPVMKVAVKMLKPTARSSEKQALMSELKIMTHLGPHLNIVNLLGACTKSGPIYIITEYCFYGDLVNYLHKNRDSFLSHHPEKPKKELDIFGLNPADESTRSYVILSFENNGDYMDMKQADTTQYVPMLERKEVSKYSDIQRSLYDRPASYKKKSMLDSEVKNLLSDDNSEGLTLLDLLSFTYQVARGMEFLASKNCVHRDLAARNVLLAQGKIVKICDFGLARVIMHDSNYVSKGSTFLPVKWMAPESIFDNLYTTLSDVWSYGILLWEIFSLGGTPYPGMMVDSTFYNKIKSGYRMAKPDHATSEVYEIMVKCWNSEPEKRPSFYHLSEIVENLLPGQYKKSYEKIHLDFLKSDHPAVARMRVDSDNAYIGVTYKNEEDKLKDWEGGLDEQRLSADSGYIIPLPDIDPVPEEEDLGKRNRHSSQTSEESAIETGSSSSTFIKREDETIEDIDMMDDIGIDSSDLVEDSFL
T1 sequence (P16234 with tags, fused parts or gaps D842V): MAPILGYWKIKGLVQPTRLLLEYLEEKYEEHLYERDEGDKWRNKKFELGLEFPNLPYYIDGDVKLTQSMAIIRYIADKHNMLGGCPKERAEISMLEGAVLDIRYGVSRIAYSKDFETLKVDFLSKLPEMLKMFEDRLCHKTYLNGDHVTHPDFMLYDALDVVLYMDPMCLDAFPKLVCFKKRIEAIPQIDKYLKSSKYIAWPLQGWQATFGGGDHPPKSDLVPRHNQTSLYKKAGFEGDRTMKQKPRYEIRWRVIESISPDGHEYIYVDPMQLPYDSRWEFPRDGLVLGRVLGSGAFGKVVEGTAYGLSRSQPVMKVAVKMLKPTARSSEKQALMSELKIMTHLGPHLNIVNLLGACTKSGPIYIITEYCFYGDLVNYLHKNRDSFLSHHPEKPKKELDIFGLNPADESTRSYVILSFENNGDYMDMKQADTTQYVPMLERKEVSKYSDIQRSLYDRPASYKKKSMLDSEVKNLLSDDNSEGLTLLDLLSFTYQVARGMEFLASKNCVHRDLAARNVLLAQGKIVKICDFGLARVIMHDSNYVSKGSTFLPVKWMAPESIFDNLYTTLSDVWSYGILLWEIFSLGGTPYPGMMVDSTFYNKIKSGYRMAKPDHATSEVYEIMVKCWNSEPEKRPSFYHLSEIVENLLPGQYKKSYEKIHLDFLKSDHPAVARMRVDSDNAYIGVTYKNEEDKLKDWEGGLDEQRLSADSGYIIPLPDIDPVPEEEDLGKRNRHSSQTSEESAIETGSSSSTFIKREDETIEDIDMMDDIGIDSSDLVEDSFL
T3 sequence (P16234 with tags, fused parts or gaps): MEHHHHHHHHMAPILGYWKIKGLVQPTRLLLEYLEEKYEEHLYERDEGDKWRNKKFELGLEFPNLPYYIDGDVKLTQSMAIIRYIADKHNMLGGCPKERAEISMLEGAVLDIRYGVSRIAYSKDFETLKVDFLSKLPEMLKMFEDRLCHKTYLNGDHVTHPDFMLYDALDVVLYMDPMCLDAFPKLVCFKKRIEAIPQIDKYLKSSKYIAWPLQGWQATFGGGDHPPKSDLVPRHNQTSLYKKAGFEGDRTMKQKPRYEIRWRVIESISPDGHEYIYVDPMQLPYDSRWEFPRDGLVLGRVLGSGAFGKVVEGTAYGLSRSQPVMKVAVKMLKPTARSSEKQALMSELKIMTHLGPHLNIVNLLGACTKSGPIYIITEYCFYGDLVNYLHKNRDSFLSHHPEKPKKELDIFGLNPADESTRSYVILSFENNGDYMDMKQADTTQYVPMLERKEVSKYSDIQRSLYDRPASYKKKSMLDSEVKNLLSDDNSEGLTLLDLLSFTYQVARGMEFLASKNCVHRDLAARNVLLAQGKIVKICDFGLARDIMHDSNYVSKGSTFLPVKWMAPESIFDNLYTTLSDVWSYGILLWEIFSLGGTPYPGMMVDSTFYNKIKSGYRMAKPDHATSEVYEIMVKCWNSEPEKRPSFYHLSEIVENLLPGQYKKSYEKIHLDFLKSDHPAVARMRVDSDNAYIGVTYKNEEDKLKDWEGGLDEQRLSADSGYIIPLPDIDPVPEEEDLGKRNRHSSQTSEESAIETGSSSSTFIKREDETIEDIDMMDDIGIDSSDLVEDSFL
T4 sequence (P09619 with tags, fused parts or gaps N1019K): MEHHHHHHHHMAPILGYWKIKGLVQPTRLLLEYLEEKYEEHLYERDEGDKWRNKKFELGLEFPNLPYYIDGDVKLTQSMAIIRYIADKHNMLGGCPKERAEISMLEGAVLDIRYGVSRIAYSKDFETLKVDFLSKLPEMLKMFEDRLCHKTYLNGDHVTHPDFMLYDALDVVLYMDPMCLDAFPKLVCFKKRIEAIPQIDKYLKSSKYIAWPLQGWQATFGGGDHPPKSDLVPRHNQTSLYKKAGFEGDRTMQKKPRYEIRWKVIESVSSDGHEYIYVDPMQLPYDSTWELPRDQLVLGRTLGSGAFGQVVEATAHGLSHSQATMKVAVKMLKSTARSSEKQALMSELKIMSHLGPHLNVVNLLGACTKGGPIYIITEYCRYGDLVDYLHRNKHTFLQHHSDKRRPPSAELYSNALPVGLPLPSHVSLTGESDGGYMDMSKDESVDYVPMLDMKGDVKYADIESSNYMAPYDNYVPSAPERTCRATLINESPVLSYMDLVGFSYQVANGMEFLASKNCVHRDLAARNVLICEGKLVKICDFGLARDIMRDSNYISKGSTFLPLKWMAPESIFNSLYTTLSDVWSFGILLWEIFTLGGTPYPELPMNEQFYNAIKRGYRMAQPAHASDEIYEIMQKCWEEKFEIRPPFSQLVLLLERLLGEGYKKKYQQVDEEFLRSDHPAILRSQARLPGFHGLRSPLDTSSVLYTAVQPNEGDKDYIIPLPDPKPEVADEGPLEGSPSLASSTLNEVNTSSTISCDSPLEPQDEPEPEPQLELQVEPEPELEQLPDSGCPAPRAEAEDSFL

On to `CCn1c(=O)c(-c2cc(NC(=O)Nc3ccccc3)c(F)cc2Br)cc2cnc(NC)cc21` [Compound A, 1-[4-bromo-5-[1-ethyl-7-(methylamino)-2-oxo-1,2-dihydro-1,6-naphthyridin-3-yl]-2-fluorophenyl]-3-phenylurea], for which the maximum concentration (Cmax) in data set [1] (oral Compound A 150 mg BID) was 1500 ng/mL; in [1] (oral Compound A 150 mg QD), 861 ng/mL. The “Compound A AUC12h (mean)” value in data set [1] (oral Compound A 150 mg QD) is recorded as 8,070 ng*h/mL. Also, the “Frequency of double positive CTCs (PDGFRα+/GFAP+)” value is 2.22 CTCs/mL in data set [2] (cycle 7 (28 weeks)), 1.11 CTCs/mL in [2] (cycle 13 (52 weeks)) and 0.58 CTCs/mL in data set [2] (cycle 17 (68 weeks)). The “PDGFRα D842V mutation allele frequency in plasma cfDNA” value in data set [3] (Cycle 3 Day 1 (8 weeks), not detected at baseline) is listed as 0.59%; in [3] (Cycle 5 Day 1 (16 weeks) and Cycle 7 Day 1 (24 weeks)), “undetectable”. For the same compound, the Clinical outcome in [4] (30 mg BID oral, cycles of 28 days) is “progressed after 2 treatment cycles”. Moreover, the “Time on treatment with continued benefit” value in [4] (100 mg BID oral, Cycle 11) is given as above 40 weeks. The “Tumor assessment according to RECIST 1.1” value in data set [4] (100 mg BID oral, most recent assessment) is reported as “Stable Disease”. Besides, in data set [4] (150 mg QD oral), the Tumor reduction entry is “some tumor reduction observed”. The compound further showed a Time on treatment in data set [4] (150 mg QD oral, Cycle 6) above 20 weeks. For the same compound, the “Tumor assessment per RECIST” value in data set [4] (150 mg QD oral, Cycle 6) was “stable disease”. The “Tumor response according to the RANO criteria” value in [5] (PDGFRα 6× amplified, since assessment after Cycle 12 (48 weeks)) is on record as “Partial Response”. In addition, the “Time on study with continued benefit” value in data set [5] (PDGFRα amplified, cycle 19) is recorded as above 17 months.

Regarding `CCn1c(=O)c(-c2cc(NC(=O)Nc3ccccc3)c(F)cc2Br)cc2cnc(N)cc21` [Compound B, 1-(5-(7-amino-1-ethyl-2-oxo-1,2-dihydro-1,6-naphthyridin-3-yl)-4-bromo-2-fluorophenyl)-3-phenylurea], the IC50 in data set [6] was 20 nM; in data set [7] it was below 0.1 nM; in data set [8], 26 nM; in data set [9], 6 nM; in [10] it was 0.018 nM; in data set [11], 5 nM. In addition, in data set [12], the IC50 stood at 42 nM.

These data come from patent publication US20220370424A1 (Deciphera Pharmaceuticals, LLC, priority 2017, published 2022).
